Laboratory results from ChEMBL document CHEMBL3039007, “Structure-based identification of OATP1B1/3 inhibitors” (Mol Pharmacol, 2013).

How the values were obtained:
[1] = biological target: T1, Solute carrier organic anion transporter family member 1B1 (Homo sapiens, UniProt Q9Y6L6); conditions: chinese hamster, cho, 10 µM
T1 sequence (Q9Y6L6 whole entry): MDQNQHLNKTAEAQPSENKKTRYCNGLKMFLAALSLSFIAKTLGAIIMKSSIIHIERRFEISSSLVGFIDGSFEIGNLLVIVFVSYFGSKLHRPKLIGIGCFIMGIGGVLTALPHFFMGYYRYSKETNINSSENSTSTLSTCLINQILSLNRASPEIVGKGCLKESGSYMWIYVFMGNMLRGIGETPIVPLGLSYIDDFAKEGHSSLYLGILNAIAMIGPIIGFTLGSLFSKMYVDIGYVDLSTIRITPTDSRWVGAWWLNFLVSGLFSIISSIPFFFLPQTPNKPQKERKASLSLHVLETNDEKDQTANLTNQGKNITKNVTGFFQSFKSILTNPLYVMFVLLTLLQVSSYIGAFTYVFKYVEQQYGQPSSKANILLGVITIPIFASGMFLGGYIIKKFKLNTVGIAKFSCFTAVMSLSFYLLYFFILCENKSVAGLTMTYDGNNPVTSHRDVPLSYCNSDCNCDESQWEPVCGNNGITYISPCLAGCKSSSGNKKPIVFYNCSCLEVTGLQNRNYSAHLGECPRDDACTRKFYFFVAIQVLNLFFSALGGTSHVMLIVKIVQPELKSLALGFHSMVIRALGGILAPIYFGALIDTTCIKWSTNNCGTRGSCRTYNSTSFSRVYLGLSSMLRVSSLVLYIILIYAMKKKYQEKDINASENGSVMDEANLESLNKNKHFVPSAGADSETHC

[2] = biological target: T2, Solute carrier organic anion transporter family member 1B3 (Homo sapiens, UniProt Q9NPD5); conditions: chinese hamster, cho, 10 µM
T2 sequence (Q9NPD5 whole entry): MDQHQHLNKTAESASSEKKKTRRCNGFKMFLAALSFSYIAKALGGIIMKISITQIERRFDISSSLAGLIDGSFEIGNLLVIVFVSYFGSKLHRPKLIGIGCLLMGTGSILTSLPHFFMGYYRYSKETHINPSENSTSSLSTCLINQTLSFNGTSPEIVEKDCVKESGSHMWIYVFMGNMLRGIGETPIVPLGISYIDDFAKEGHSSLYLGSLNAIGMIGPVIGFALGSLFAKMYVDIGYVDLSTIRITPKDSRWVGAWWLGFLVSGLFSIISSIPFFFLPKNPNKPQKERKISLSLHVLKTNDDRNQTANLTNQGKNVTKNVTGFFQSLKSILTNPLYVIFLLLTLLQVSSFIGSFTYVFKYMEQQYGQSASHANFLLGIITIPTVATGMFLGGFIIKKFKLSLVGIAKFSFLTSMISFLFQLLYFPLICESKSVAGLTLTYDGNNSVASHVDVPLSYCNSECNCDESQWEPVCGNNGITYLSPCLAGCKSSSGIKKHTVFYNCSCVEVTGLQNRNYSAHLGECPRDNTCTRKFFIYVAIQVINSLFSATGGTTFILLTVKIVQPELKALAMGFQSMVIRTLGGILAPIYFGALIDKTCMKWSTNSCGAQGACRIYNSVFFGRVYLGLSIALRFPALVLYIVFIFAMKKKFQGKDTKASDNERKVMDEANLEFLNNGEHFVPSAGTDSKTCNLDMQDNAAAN

SMILES | residual activity [1] [%] | residual activity [2] [%]
CC[C@H](/C=C/[C@@H](C)[C@H]1CC[C@H]2[C@@H]3CC=C4C[C@@H](O)CC[C@]4(C)[C@H]3CC[C@]12C)C(C)C [STIGMASTEROL] | 110.2 | 103.2
CN[C@@H]1[C@H](O[C@H]2[C@H](O[C@H]3[C@H](O)[C@@H](O)[C@H](N=C(N)N)[C@@H](O)[C@@H]3N=C(N)N)O[C@@H](C)[C@]2(O)C=O)O[C@@H](CO)[C@H](O)[C@H]1O.CN[C@@H]1[C@H](O[C@H]2[C@H](O[C@H]3[C@H](O)[C@@H](O)[C@H](N=C(N)N)[C@@H](O)[C@@H]3N=C(N)N)O[C@@H](C)[C@]2(O)C=O)O[C@@H](CO)[C@H](O)[C@H]1O.O=S(=O)(O)O.O=S(=O)(O)O.O=S(=O)(O)O [STREPTOMYCIN SULFATE] | 87.18 | 109.2
CN(N=O)C(=O)N[C@@H](C=O)[C@@H](O)[C@H](O)[C@H](O)CO [STREPTOZOCIN] | 93.43 | 100.3
CC1(C)C2(Cl)C(Cl)C(Cl)C(Cl)(C(Cl)Cl)C1(Cl)C2Cl (stereo not drawn) [STROBANE] | 106.1 | 105.4
O=C1C[C@@H]2OCC=C3CN4CC[C@]56c7ccccc7N1[C@H]5[C@H]2[C@H]3C[C@H]46 [STRYCHNINE] | 79.74 | 93.97
CC(=O)CC(=O)CCC(=O)O [SUCCINYLACETONE] | 92.01 | 94.95
Clc1ccc(CSC(Cn2ccnc2)c2ccc(Cl)cc2Cl)cc1.O=[N+]([O-])O (stereo not drawn) [SULCONAZOLE NITRATE] | 116.2 | 107.6
Nc1ccc(S(=O)(=O)NC(=O)c2ccccc2)cc1 [SULFABENZAMIDE] | 84.77 | 94.35
Nc1ccc(S(=O)(=O)Nc2ccc(Cl)nn2)cc1 [SULFACHLORPYRIDAZINE] | 134.9 | 95.19
Nc1ccc(S(=O)(=O)Nc2ncccn2)cc1 [SULFADIAZINE] | 90.81 | 74.08
COc1cc(NS(=O)(=O)c2ccc(N)cc2)nc(OC)n1 [SULFADIMETHOXINE] | 118.7 | 103
[H]/N=C(/N)NS(=O)(=O)c1ccc(N)cc1 [SULFAGUANIDINE] | 119.2 | 108
Cc1ccnc(NS(=O)(=O)c2ccc(N)cc2)n1 [SULFAMERAZINE] | 84.88 | 101.2
Cc1cc(C)nc(NS(=O)(=O)c2ccc(N)cc2)n1 [SULFAMETHAZINE] | 90.46 | 97.37
Cc1nnc(NS(=O)(=O)c2ccc(N)cc2)s1 [SULFAMETHIZOLE] | 89.01 | 100.6
Cc1cc(NS(=O)(=O)c2ccc(N)cc2)no1 [SULFAMETHOXAZOLE] | 104.3 | 94.47
COc1cc(NS(=O)(=O)c2ccc(N)cc2)ncn1 [SULFAMONOMETHOXINE] | 109.8 | 105.3
Nc1ccc(S(N)(=O)=O)cc1 [SULFANILAMIDE] | 113.8 | 155.8
Nc1ccc(S(=O)(=O)Nc2ccnn2-c2ccccc2)cc1 [SULFAPHENAZOLE] | 104.5 | 98.59
Nc1ccc(S(=O)(=O)Nc2ccccn2)cc1 [SULFAPYRIDINE] | 73.46 | 105.2
Nc1ccc(S(=O)(=O)[N-]c2cnc3ccccc3n2)cc1.[Na+] [SULFAQUINOXALINE SODIUM] | 73.75 | 102.9
O=C(O)c1cc(/N=N/c2ccc(S(=O)(=O)Nc3ccccn3)cc2)ccc1O [SULFASALAZINE] | 126.2 | 72.91

SMILES | residual activity [1] [%] | residual activity [2] [%]
Nc1ccc(S(=O)(=O)Nc2nccs2)cc1 [SULFATHIAZOLE] | 89.12 | 85.21
O=C1C(CC[S+]([O-])c2ccccc2)C(=O)N(c2ccccc2)N1c1ccccc1 (stereo not drawn) [SULFINPYRAZONE] | 55.19 | 43.93
Cc1noc(NS(=O)(=O)c2ccc(N)cc2)c1C [SULFISOXAZOLE] | 78.99 | 90.16
COc1cc([S+](C)[O-])ccc1-c1nc2ncccc2[nH]1 (stereo not drawn) [SULMAZOLE] | 107.4 | 116.5
CCCCCCCCNC(C)C(O)c1ccc(SC(C)C)cc1 (stereo not drawn) [SULOCTIDIL] | 143.8 | 108.7
CCN1CCCC1CNC(=O)c1cc(S(N)(=O)=O)ccc1OC (stereo not drawn) [SULPIRIDE] | 121.8 | 106.2
COC(=O)C(C)c1ccc(C(=O)c2cccs2)cc1 (stereo not drawn) [SUPROFEN METHYL ESTER] | 93.7 | 95.34
CC(C(=O)O)c1ccc(C(=O)c2cccs2)cc1 (stereo not drawn) [SUPROFEN] | 108.5 | 96.21
C/C=C(\C)C(=O)O[C@@H]1[C@@H]2C=C3[C@@H]4CC(=O)O[C@@H](c5ccoc5)[C@]4(C)CC[C@@H]3[C@@](C)(C2=O)[C@@H]([C@@H](O)C(=O)OC)C1(C)C [SWIETENINE] | 14.03 | 69.9
COC(=O)[C@H](O)[C@H]1C(C)(C)[C@H](OC(C)=O)[C@@H]2CC3=C4CC(=O)O[C@@H](c5ccoc5)[C@]4(C)CC[C@@H]3[C@@]1(C)C2=O [SWIETENOLIDE-3-ACETATE] | 54.05 | 66.25
O=C(O)c1cc(O)c2c(c1)[C@H]([C@H]1c3cc(C(=O)O)cc(O)c3C(=O)c3c(O[C@@H]4O[C@H](CO)[C@@H](O)[C@H](O)[C@H]4O)cccc31)c1cccc(O[C@@H]3O[C@H](CO)[C@@H](O)[C@H](O)[C@H]3O)c1C2=O [Sennoside A] | 122.9 | 111.1
CNC(=O)N(C)c1nnc(C(C)(C)C)s1 [TEBUTHIURON] | 87.52 | 111.4
CCCCCNC(=N)N/N=C/c1c[nH]c2ccc(OC)cc12.O=C(O)/C=C\C(=O)O [TEGASEROD MALEATE] | 73.16 | 112.9
Cc1scc2c1N(C(=O)CN1CCN(C)CC1)c1ccccc1NC2=O.Cl [TELENZEPINE HYDROCHLORIDE] | 99.27 | 93.24
COP(=S)(OC)Oc1ccc(Sc2ccc(OP(=S)(OC)OC)cc2)cc1 [TEMEFOS] | 144.3 | 89.27
COc1cc([C@@H]2c3cc4c(cc3[C@@H](O[C@@H]3O[C@@H]5CO[C@@H](c6cccs6)O[C@H]5[C@H](O)[C@H]3O)[C@H]3COC(=O)[C@H]23)OCO4)cc(OC)c1O [TENIPOSIDE] | 25.44 | 32.58
CN1C(C(=O)Nc2ccccn2)=C(O)c2sccc2S1(=O)=O [TENOXICAM] | 78.82 | 78.1
CCC(=O)O[C@H]1CC[C@H]2[C@@H]3CCC4=CC(=O)CC[C@]4(C)[C@H]3CC[C@]12C [TESTOSTERONE PROPIONATE] | 121 | 133.5
CCCCNc1ccc(C(=O)OCCN(C)C)cc1.Cl [TETRACAINE HYDROCHLORIDE] | 61.91 | 88.3
CN(C)[C@@H]1C(O)=C(C(N)=O)C(=O)[C@@]2(O)C(O)=C3C(=O)c4c(O)cccc4[C@@](C)(O)[C@H]3C[C@@H]12.Cl [TETRACYCLINE HYDROCHLORIDE] | 118.1 | 97.72
O=C(O)Cc1cc(I)c(Oc2cc(I)c(O)c(I)c2)c(I)c1 [TETRAC] | 33.41 | 71.42
C[C@]12CC[C@@H](O)C[C@H]1CC[C@@H]1[C@@H]2C(=O)C[C@@]2(C)[C@H]1CC[C@]2(O)C(=O)CO [TETRAHYDROCORTISONE] | 101.6 | 99.93
